Assay results: ChEMBL document CHEMBL3507680, “University of Dundee, Gates Library screen for HepG2 cell viability”

test: Human HepG2 cell viability assay in 384 well format; format: toxicity, cell-based; set-up: dose 125 nL, time 70.5 hour; concentration not given beside the values; conditions: HepG2 cells, read-out: Inhibition

SMILES	cytotoxicity at 70.5 h [%]
O=C(NCc1cccnc1-n1cncn1)c1ccc2c(c1)CCO2	-1.03
CN(C)Cc1ccnc(NS(=O)(=O)CCc2ccccc2)c1	3.89
CCN(CC)C(=O)CSc1nc2c(cnn2CCO)c(=O)[nH]1	17.2
CCC(CO)N(CC=C(C)C)Cc1ccsc1 (centres undefined)	-2.49
CC(C)Oc1cccc(C(O)CNC(=O)CCc2ccncc2)c1 (centres undefined)	-5.8
CC(C)c1ccc2c(c1)C1(CC(=O)Nc3[nH]ncc31)C(=O)N2C (centres undefined)	-19.6
Cc1cccc(CNC2(CCO)CCOCC2)c1C	-2.52
Cc1sc2nc(SC(C)c3nc(C(C)(C)C)no3)nc(N)c2c1C (centres undefined)	21.9
Cc1cc(-c2cc(N)c(=O)n(CC(=O)NC3CCCC3)n2)c(C)o1	-1.96
CCN(Cc1ccc(N(C)C)cc1)S(=O)(=O)c1cc(Br)ccc1OC	-1.59
Cn1nc(C#N)c2c1CN(C(=O)c1ccnnc1)CCC2	0.526
CCc1noc(C(C)N2CCN(c3ccc(C#N)cc3F)CC2)n1 (centres undefined)	-24.4
CCN1CCN(C(=O)COc2ccc(CN(C)S(C)(=O)=O)cc2)CC1	-3.87
CCCSc1ncc(CN(C)CCN2CCCCC2)cn1	-2.41
O=C(N1CCOCC1)N1CC[C@@](O)(c2ccccc2)[C@H]2CCCC[C@@H]21	-1.75
Cc1csc([C@H]2C[C@@H]3CCN(Cc4cnn(C)c4)C[C@H]3O2)n1	-7.09
CNC(=O)NCC(=O)N(C)C(c1ccc(Cl)cc1)c1cccnc1 (centres undefined)	21.3
Cc1csc(CNC(=O)NC(C)c2ccc3c(c2)OCCO3)n1 (centres undefined)	5.07
COCc1cnc2n1CCN(C(=O)c1cc3ccccc3o1)C2C (centres undefined)	18.8
c1ccc(-c2nc(CN3CCCCC3Cn3cncn3)co2)cc1 (centres undefined)	-0.916
CC(Cn1cccn1)NC(=O)NCc1ccnc(OC2CCCC2)c1 (centres undefined)	-8.79
O=C(c1c(F)cccc1Br)N1CCCOCC1	3.06
O=S(=O)(N1CCCC1)N1CC(c2ccnc(Nc3ccccn3)n2)C1	8.07

SMILES	cytotoxicity at 70.5 h [%]
Cc1cc(C)n(CCNc2ncnc3c2NC(=O)CN3)n1	-15.7
Cc1nn(C)c(N2CCOCC2)c1CNCc1ccnc(N(C)C)c1	-5.34
CCC1(CO)CCCN(C(=O)c2cc(COc3ccccc3F)[nH]n2)C1 (centres undefined)	-0.863
CC(C)OCCOCc1cccc(NC(=O)NCc2ccncc2)c1	2.35
NC(=O)C1CCN(C(=O)c2ccccc2OCc2ccncc2)CC1	-12.3
COC[C@@H]1CCC[C@@]12CN(Cc1ccco1)CCO2	-15.7
c1coc(CN2CCCC3(COCCN(Cc4c[nH]nn4)C3)C2)c1 (centres undefined)	-2.53
CO[C@H]1CN(C(=O)c2cn3cc(C)ccc3n2)CC[C@@]12CCCO2	-17.2
CSc1ncc(CN2CC(Oc3c(C)cccc3C)C2)cn1	-2.81
O=C(Cc1cnc(-n2cccc2)s1)NCCCO	-25
CSCC(C)(O)CNS(=O)(=O)c1cccc(Cl)c1 (centres undefined)	-4.18
COc1ccc2nnc(CCC(=O)NCc3cccn3C)n2n1	-2.62
CC1N(C)C(=O)COC12CCN(Cc1nccs1)CC2 (centres undefined)	-9.04
Cc1nn(CC(C)C)cc1S(=O)(=O)N(C)Cc1nonc1C	0.131
Cc1nc2cc(NCc3cnn(C)c3)ccc2n1C	-2.05
CC1(C)CN(Cc2csc(CS(C)(=O)=O)n2)Cc2ccccc21	-0.447
O=C1CC(N2CCN(c3ccccc3O)CC2)C(=O)N1Cc1cccs1 (centres undefined)	-12.2
CN(C)CCC1CCCCN1Cc1cnn(C)c1C1CC1 (centres undefined)	2.52
Cc1oc(-c2ccoc2)nc1CN1CCCCC1CCn1cccn1 (centres undefined)	-3.32
CCc1nc(C2CCCN2CC(=O)Nc2cc(C)no2)no1 (centres undefined)	-5.2
c1ccc(C2CN(CCc3ccncc3)CCO2)cc1 (centres undefined)	-9.13
COc1cc(C)ccc1OCCC(=O)N1CCC(N2CC=CC2)C1 (centres undefined)	-2.75
COCCCN1C(=O)CC[C@H]2CN(Cc3ccc4occc4c3)CC[C@H]21	26.4

SMILES	cytotoxicity at 70.5 h [%]
Cc1nc(CN2CCN(S(=O)(=O)N3CCCCC3)CC2)oc1C	-4.75
O[C@@H]1CN(Cc2cccc(F)c2)CC[C@H]1NCc1ccccn1	12.7
COCc1nc(CNC(=O)C(C)n2ccnc2C(C)C)no1 (centres undefined)	-9.39
CCc1ccc(CN(C)c2ccc(-c3nc(COC)no3)cn2)nc1	-4.59
Cc1cccc(CN2CCc3ncnc(N4CCN(C)CC4)c3CC2)n1	-0.603
CC(C)OCc1noc(C2CC=CC2)n1	-6.7
Cc1cc(S(C)(=O)=O)c(C)c(S(=O)(=O)NCC2CCC2)c1	-9.88
COCCN1CCc2ncc(CN(C)C)n2CC1	-0.491
CC(C)NC(=O)C1CN(C(=O)N2CCCC2)CC12CCOCC2 (centres undefined)	-1.86
CCOCC1CN(S(=O)(=O)Cc2ccccc2)Cc2nccn2C1 (centres undefined)	-3.22
Cc1ccc(NC(=O)CN2CCC(OCC3CCCO3)CC2)c(C)c1 (centres undefined)	5.15
CC(C)C(=O)NC1CCN(c2cccc(OC(F)(F)F)c2)C1=O (centres undefined)	8.86
NC(=O)NC(=O)CCN1CCN(CC2CC2)c2ccccc21	31.2
CN(C)S(=O)(=O)c1ccc(CN2CCCC2CO)o1 (centres undefined)	-17
NC(=O)CCSc1n[nH]c(-c2ccc3c(c2)CCC3)n1	-1.76
CCc1n[nH]c(C2CN(C(=O)c3cnc(C)nc3CC)CCO2)n1 (centres undefined)	-8.34
CC(O)CCn1ccc2[nH]c(=O)c(C#N)cc2c1=O (centres undefined)	4.38
Cc1cc(N2CCN(Cc3cn(C)nc3C)CC2)cc(C2CCCN2)n1 (centres undefined)	-1.66
Cn1cc(-c2csc(N3CCCCCC3)n2)cn1	-1.01
O=c1cc2c(nn1CN1CCN(c3ccccc3)CC1)CCC2	-4.25
Cc1noc(C)c1CN1CCC(N(C)Cc2noc(C(C)C)n2)C1 (centres undefined)	5.99
O=C(c1cnccn1)N1C[C@@H](OCc2ccncc2)[C@@H]2OCCC[C@@H]21	-8.9
CN1CCC(N(C)CCC(=O)N2CCC(OCc3ccccc3)CC2)C1 (centres undefined)	29.2

SMILES	cytotoxicity at 70.5 h [%]
CNC(=O)CN1CCC(CN(C)Cc2ccc(C)cc2C)CC1	27.9
Cc1ccc2c(c1)CCCN2C(=O)c1cncc(Br)c1	20.3
CN1CCCC2(CCN(S(=O)(=O)c3ccc(-c4cnco4)s3)C2)C1=O (centres undefined)	-7.66
CN(CCO)C[C@@H]1CN(C(=O)Cc2ccc3ccccc3c2)C[C@@H]1CO	-4.17
Cc1ccc(-n2c(SCC(=O)O)nnc2-c2cccc(C)c2)cc1	-7.34
CCN1CCN(C2CCN(Cc3nc(C)c(C)o3)CC2)C1=O	-3.68
Cc1cc(C)n(CC(C)NC(=O)c2cc(CN3CCC(O)CC3)on2)n1 (centres undefined)	-9.49
CCc1cc(NC2CCS(=O)(=O)CC2)nc(N2CCCCC2)n1	22.5
CC(=O)N1CCCN(CCCSc2ccccc2Cl)CC1	-6.8
Cc1cc(C)c2nc(CN[C@H]3CCCNC3)cc(O)c2c1	-2.89
CCCn1nnnc1COC(=O)C1Cc2cc(Cl)ccc2O1 (centres undefined)	-9.18
COCCCNC(=O)c1cc(-c2ccc(OC)cc2)nn1C	4.27
Cc1cccc(CN2C[C@@H]3CN(C(=O)c4conc4C)C[C@@H]3C2=O)c1	-3.16
Cc1cccc(C2(CNC(=O)CCNS(C)(=O)=O)CCCC2)c1	27
Nc1cc(-c2cccs2)nn(CC(=O)NCC2CCCCC2)c1=O	-10
Cc1cnc(N2CCCC3(CCCN(C)C3)C2)nc1 (centres undefined)	-0.385
CN(C)S(=O)(=O)N1CCC(c2ccncc2)CC1	-10.2
CCN(CC)C(=O)[C@@H]1C[C@@H](NC(=O)c2cccc(N(C)C)c2)CN1C	26.1
COc1cccc(N2CCN(C(=O)CCO)CC2=O)c1	-8.46
O=C1CC[C@]2(CC[C@@H](NCc3ccsc3)CC2)N1Cc1ccccc1	-3.82
Cc1nnc2n1CCN(C(=O)c1cc(Br)c(Cl)[nH]1)C2	-1.01
Cc1cnc(CNS(=O)(=O)CCC2CCCO2)o1 (centres undefined)	-12.3
COC(=O)c1ccc(N2CCN(C(=O)C3CCC3)C(C)C2)cc1 (centres undefined)	17.6

SMILES	cytotoxicity at 70.5 h [%]
CC1c2ncc(Cn3cncn3)n2CCN1C(=O)N(C)C (centres undefined)	-7.73
COCC(C)(O)CNC(=O)c1cc(-c2cc(OC)ccc2OC)nn1C (centres undefined)	6.52
CC(C)c1nc(C2CCCN(C(=O)CCCn3cncn3)C2)no1 (centres undefined)	-16
OCc1ccc(N2CCN(c3ncccn3)CC2)c(F)c1	-5.65
COCCn1cc(C(=O)NC2CCS(=O)(=O)C2)c2ccccc2c1=O (centres undefined)	-14.8
CCn1cnnc1C1CCN(C(=O)c2c(C)oc(C)c2C)CC1	0.3
Cc1cnc(N2C[C@@H]3[C@@H](C2)OCC(=O)N3C)nc1	-8.76
O=C1CCC2(CCCN(C(=O)Cc3cccs3)C2)N1 (centres undefined)	-5
CN(C)C(CNC(=O)NCCS(C)(=O)=O)c1ccco1 (centres undefined)	-4.23
Cc1ccccc1-n1cc(C2=CCN(CCN3CCOCC3)CC2)cn1	12.8
CN(C)CCN1C(=O)C2(CCN(CC3CC3)CC2)c2ccccc21	-4.59
CCC[C@H]1CN(S(C)(=O)=O)C[C@@H]1NC(=O)c1ccc(COC)cc1	0.361
CC(Cc1ccccc1F)NC(=O)CCc1nc(-c2nnc[nH]2)no1 (centres undefined)	-4.06
CCC1c2cccn2CCN1C(=O)c1cc(OC)nc(OC)n1 (centres undefined)	44.1
COC(=O)C(NC(=O)CCc1ccco1)c1cc(F)ccc1F (centres undefined)	-7.98
CN(Cc1ccco1)C1COC2(CCN(Cc3nccs3)CC2)C1 (centres undefined)	-21.8
CC(C)n1c(=O)nc2n1C(=O)N(c1ccc(F)cc1)C2	-10.1
CCN(CC1CCOC1)C(=O)CSCC(=O)Nc1ccc(C)cc1 (centres undefined)	-2.49
Cn1nc(N2CCCC(C(=O)Nc3nc4ccccc4s3)C2)ccc1=O (centres undefined)	1.88
N#CCCN(C(=O)CN1CCCC1Cc1ccccc1)c1ccccc1 (centres undefined)	0.569
CO[C@H]1[C@@H]2CC[C@H]1CN(c1nc(C)nc3sccc13)C2	6.45
CCc1nnc(SCc2nonc2C)n1C1CC1	-10.7
